This note sets out measurements from patent US8455523B2, “Compositions and methods for treating hyperlipidemias” (The Research Foundation of State University of New York, priority 2010, dated 2013).

In data set [1] the test system is C57Bl/6J mice fed western diet. Put plainly: MTP inhibitor CP-346086 with or without lovastatin or WY14643 in western diet fed mice: plasma/hepatic lipids, AST/ALT. The note with it: for hepatic cholesterol (total, free and esterified): co-drug given with MTPi, compared to MTPi group. In kind it is in vivo. On the procedure:
FIGS. 4a and 4b. Effect of MTP inhibitor (CP-34086) on plasma lipids and lipoproteins in C57Bl/6J mice fed western diet ad libitum for 8 weeks. MTP inhibitor solubilzed in DMSO was administered orally for one week (15 mg/kg/day) along with either DMSO (MTPi), lovastatin (50 mg/kg/day), or WY14643 (10 mg/kg/day). Control mice were gavaged with DMSO only.
FIGS. 5a and 5b. Liver samples from FIG. 4 were used to measure MTP activity (A) and hepatic lipids (B-E). Stars on MPTi group represent comparison between Control and MTPi groups.
Control group (n=4) received daily oral gavage of DMSO alone. MTPi group received 15 mg/kg/day MTP inhibitor CP-346086 (MTPi) once daily. […] Plasma total and HDL cholesterol were unaffected by MTPi. Combined treatment of MTPi and lovastatin decreased plasma LDL cholesterol. […] Next, we measured changes in plasma hepatic enzymes (FIGS. 4G-H). […] These studies indicate that apart from lowering plasma triglyceride, MTPi enhances plasma AST/ALT and these increases can be avoided by the co-administration of lovastatin.

The subject of data set [2] is hyperlipidemic bonnet macaques. In words: MTP inhibitor with or without pioglitazone or lovastatin in western diet fed bonnet macaques. The class given is in vivo, bonnet macaque monkeys. The following applies: for plasma cholesterol: then MTP inhibitor one month ± Pioglitazone or Lovastatin; for Hepatic cholesterol, total and free: biopsies. How it is done:
FIG. 14. Bonnet Macaque monkeys fed ad libitum WD diet for 40 days and were administered MTPi, Lovastatin, (Lovas) or Pioglitazone (Pio) everyday for one month. A-D* represent comparisons to the MTPi alone group. E-I* represent comparisons between baseline and post biopsies.
Eleven (11) Male bonnet macaque monkeys were fed western diet for 40 days and treated with MTP inhibitor (BMS 2122122-01) with or without either Pioglitazone or Lovastatin for one month. Plasma samples were obtained at Day 0, 20, 40, 47, 54, 61 and 68 days. Liver biopsies were obtained on Day 40 and Day 68. Biopsies were conducted over two days; 2 animals from each group were biopsied per day.
In order to ascertain if the effects seen were a species-specific effect, we studied the treatment of MTP inhibitors either alone or in conjunction with Pioglitazone or Lovastatin in hyperlipidemic bonnet macaques. These animals were fed ad libitum with a WD for 40 days and then subsequently treated with MTP inhibitors for one month. […] These studies indicate that western diet increases plasma cholesterol and that these increases can be abrogated by treatment with an MTP inhibitor.

For another data set, the system named is mice fed western diet. In words: MTPi with or without pioglitazone or lovastatin in mice fed western diet for five weeks (Example III). The note with it: for cellular cholesteryl esters (liver) / hepatic free cholesterol / hepatic triglycerides: MTPi vs control. On the procedure:
FIGS. 7a and 7b. Mice were fed western diet for five weeks. […] Livers were collected and used to measure MTP activity (A), triglyceride (B), total cholesterol (C), free cholesterol (D), esterified cholesterol (E) and free fatty acids (F).
FIGS. 8a and 8b. Plasma was obtained from animals described in FIG. 7 and used to measure triglyceride (A) and cholesterol (B) in apoB-lipoproteins. In addition, HDL cholesterol (C), plasma free fatty acids (D), ALT (E), and AST (F) levels were measured.

Another data set deals with Reversa mice. The following applies: for plasma cholesterol / plasma triglycerides: MTP deficient (plpC) Reversa mice, oral 30 days. How it is done: FIG. 11. Reversa animals were injected with plpC every other day for one week. Lovastatin, T-090317 and WY14643 were administered by oral gavage everyday for 30 days after the first injection. Animals were sacrificed on day 30 and plasma and livers were harvested and analyzed. * represent comparison to PBS injected animals and # represent comparisons to plpC control.
Animals: Mttp^tm2Sgy LdIr^tm1Her Apob^tm2Sgy Tg(Mx1-cre)1Cgn/J mice (Reversa) (stock number 004192) were obtained from Jackson Laboratories. Male reversa mice were used to study the effect of mttp gene deletion on plasma and tissue lipids. These animals are transgenic for apolipoprotein B, LDLR^−/− and floxed at exon 1 of the mttp locus. In addition, these mice express cre recombinase under the control of the Mx1 promoter, which is induced after intraperitoneal injection of polyinosinic polycytidylic ribonucleic acid (plpC—Sigma) in the liver, spleen and intestine. Injection of plpC activates the cre recombinase and deletes the mttp gene in the liver and intestines. Reversa mice were injected with either PBS or plpC. Mice injected with plpC were orally gavaged with DMSO (Sigma-Aldrich D8418), DMSO+Lovastatin (50 mg/kg/day) (Calbiochem 438186), DMSO+T0901317 (50 mg/kg/day) (Calbiochem 575310), or DMSO+WY14643 (10 mg/kg/day) (Calbiochem 681725). Mice injected with plpC were also injected with either PBS or Ω-3 fatty acids (SUNY Downstate Medical Center). All animals were given supplemental treatments for 30 days.
All animals were kept in 07:00-19:00 h lighting schedule. […] Food was withdrawn 16 h before the sacrifice of the mice. On the day of the experiment, mice were anesthetized and blood was collected from the heart. Liver was collected, washed in ice-cold PBS, cut into small pieces and used for lipid extraction, histological staining, to measure different protein activities/quantities and for mRNA analysis. Lipids were extracted from the tissue homogenates following the Bligh and Dyer method. Triglyceride (Infinity TM Triglyceride, TR22421) and total cholesterol (Infinity TM Cholesterol, TR13421) levels in the tissues were determined using commercial kits (Thermo Scientific). Free cholesterol and free fatty acid levels were measured using kits from Wako Chemicals (Germany). Esterified cholesterol was calculated by subtracting the free cholesterol from the total cholesterol.
To determine whether accumulation of hepatic triglyceride and free cholesterol is related to increases in plasma AST/ALT, we sought to reduce these lipids using different chemical compounds of known physiologic effects. Mice injected with plpC were orally gavaged with DMSO, DMSO+Lovastatin (50 mg/kg/day), DMSO+T0901317 (50 mg/kg/day), or DMSO+WY14643 (10 mg/kg/day). Lovastatin (Lova), an HMG-CoA reductase (HMGR) inhibitor, and T0901317 (T0), an LXR agonist, are expected to decrease hepatic free cholesterol by inhibiting endogenous cholesterol synthesis and increasing cholesterol efflux, respectively. WY14643 (WY), a PPARα agonist, increases β-oxidation of fatty acids and lowers hepatic triglycerides.
To evaluate the efficacy of Ω-3 FA in reducing hepatic triglyceride, plpC injected mice were treated with intraperitoneal injection of Ω-3 FA (3 mg/kg/2 day) or Ω-3 FA and Lova.

Where [3] appears, read: WD five weeks, treatment in last week, co-drugs with MTPi.
Setting [4] is: plpC-injected Reversa mice, Lova 50, T0 50, WY 10 mg/kg/day oral or Ω-3 FA 3 mg/kg/2 day ip, vs plpC control.

Turning to `CC[C@H](C)C(=O)O[C@H]1C[C@@H](C)C=C2C=C[C@H](C)[C@H](CC[C@@H]3C[C@@H](O)CC(=O)O3)[C@H]21` [lovastatin], the “hepatic cholesterol (total, free and esterified)” value in data set [1] is recorded as “significantly lower”. In addition, the plasma cholesterol entry in data set [2] (WD 40 days) is on record as “no further significant effect”. Besides, in data set [2] (co-drugs with MTP inhibitor), the “Hepatic cholesterol, total and free” value is recorded as “suppressed”. In the data set on mice fed western diet (setting [3]), the “cellular cholesteryl esters (liver)” value is recorded as “increased”, the hepatic free cholesterol entry is listed as “not seen”, the hepatic triglycerides entry is on record as “not affected” and the “AST/ALT levels (plasma)” value was “significantly lower”. In the data set on mice fed western diet (setting [3]), the “plasma HDL cholesterol” value is “slightly increased” and the “plasma free fatty acids” value is “not affected”. Besides, in the data set on Reversa mice, the plasma cholesterol result is listed as “significantly reduced” and the plasma triglycerides result is listed as “no effect”. For the same compound, in the data set with Reversa mice (setting [4]), the “hepatic free and total cholesterol” value is given as “significantly reduced”; the hepatic triglyceride entry was “no effect”.

`Cc1cccc(Nc2cc(Cl)nc(SCC(=O)O)n2)c1C` [WY14643]: the “plasma AST/ALT” value in data set [1] (WD 8 weeks, CP-346086 15 mg/kg/day 1 week ± lovastatin 50 or WY14643 10 mg/kg/day, MTPi vs control, co-drugs vs MTPi) is “no significant effect”. Further, in data set [1] (WD 8 weeks, WY14643 10 mg/kg/day given along with MTPi, 1 week), the plasma lipids entry was “did not affect”. In addition, the “hepatic cholesterol (total, free and esterified)” value in data set [1] is given as “no significant effect”. Besides, in the data set with Reversa mice, the plasma cholesterol entry is “no effect” and the plasma triglycerides result is on record as “no effect”. In addition, the “hepatic free and total cholesterol” value in the data set with Reversa mice (setting [4]) was “no effect”.

Take `CCc1ccc(CCOc2ccc(CC3SC(=O)NC3=O)cc2)nc1` (racemic) [pioglitazone, (RS)-5-(4-[2-(5-ethylpyridin-2-yl)ethoxy]benzyl)thiazolidine-2,4-dione]: in data set [2] (WD 40 days), the plasma cholesterol result is “no further significant effect”. In addition, the “plasma AST/ALT levels vs baseline and day 40” value in data set [2] (WD 40 days, then treatment one month) is on record as “did not show elevated”. Further, in data set [2] (co-drugs with MTP inhibitor), the “Hepatic cholesterol, total and free” value is recorded as “suppressed”; the “Hepatic triglycerides (biopsies day 40 vs day 68)” value is recorded as “no significant difference”. In the data set on mice fed western diet (setting [3]), the “cellular cholesteryl esters (liver)” value is reported as “increased”, the hepatic free cholesterol entry is given as “not seen”, the hepatic triglycerides entry is given as “avoided increases” and the “plasma HDL cholesterol” value is “slightly increased”. Moreover, the “AST/ALT levels (plasma)” value in the data set with mice fed western diet (mouse, in vivo) is on record as “significantly lower”.
